The text below walks through data of patent US11702404B2, “GLP-1R modulating compounds” (priority 2019, dated 2023).

The structures appear in SMILES notation. Read-outs that look alike come from different tables or passages of the source.

Series [1] deals with GLP-1R (Homo sapiens, UniProt P43220). The series can be described thus: GLP-1R activation: cAMP increase in CHO cells stably expressing GLP-1R. Format: cell-based.
Series [2] can be described thus: Microsomal stability, human liver microsomes (predicted hepatic clearance). The settings on record: predicted from in vitro microsomal stability data.
[3] abbreviates: cAMP increase, CHO cells stably expressing GLP-1R, 10 point dose response, 30 minutes incubation, read-out: EC50.

Chain of GLP-1R (P43220 24-463): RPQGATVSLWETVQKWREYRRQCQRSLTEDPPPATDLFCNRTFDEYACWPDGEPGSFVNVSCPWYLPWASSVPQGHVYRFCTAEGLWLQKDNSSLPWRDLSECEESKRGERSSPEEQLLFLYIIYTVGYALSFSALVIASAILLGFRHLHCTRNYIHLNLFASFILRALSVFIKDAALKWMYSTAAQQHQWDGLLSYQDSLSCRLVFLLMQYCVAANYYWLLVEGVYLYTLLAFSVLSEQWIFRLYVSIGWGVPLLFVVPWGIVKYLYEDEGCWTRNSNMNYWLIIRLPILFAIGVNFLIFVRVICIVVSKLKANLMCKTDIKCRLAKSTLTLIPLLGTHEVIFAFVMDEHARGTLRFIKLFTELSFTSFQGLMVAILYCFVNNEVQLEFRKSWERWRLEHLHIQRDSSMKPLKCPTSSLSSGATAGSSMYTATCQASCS

In the case of `COCCn1c(Cc2cc(F)c(-c3cccc(OCc4ccn(-c5ccccc5)n4)n3)cc2F)nc2ccc(C(=O)O)cc21` [Example 694], the EC50 (as a rule, the concentration giving half of the maximal effect) in series [1] (setting [3]) is 41.7 nM. Also, in series [2], the “Predicted Hepatic Clearance (Pred. Cl.)” value was 1.83 mL/min/kg.
Taken in the same sequence, the figures for `COC1(Cn2c(Cc3cc(F)c(-c4cccc(OCc5ccc(C#N)cc5F)n4)cc3F)nc3ccc(C(=O)O)cc32)CN(C2COC2)C1` [Example 696] were 592 nM and 10.8 mL/min/kg.
Regarding `CN1CC2CC1(Cn1c(Cc3cc(F)c(-c4cccc(OCc5ccc(C#N)cc5F)n4)cc3F)nc3ccc(C(=O)O)cc31)C2` [Example 697], the EC50 in series [1] (read-out: EC50) amounted to 25.6 nM. In addition, in series [2], the “Predicted Hepatic Clearance (Pred. Cl.)” value was 1.83 mL/min/kg.
Turning to `N#Cc1ccc(COc2cccc(-c3cc(F)c(Cc4nc5ccc(C(=O)O)cc5n4[C@H]4CCC(F)(F)C4)cc3F)n2)c(F)c1` [Example 698], in series [1] (setting [3]), the EC50 was found to be 63.2 nM. Also, the “Predicted Hepatic Clearance (Pred. Cl.)” value in series [2] was 6.33 mL/min/kg.
With `N#Cc1ccc(COc2cccc(-c3cc(F)c(Cc4nc5ccc(C(=O)O)cc5n4[C@@H]4CCC(F)(F)C4)cc3F)n2)c(F)c1` [Example 699], in series [1] (setting [3]), the EC50 was found to be 83.9 nM. For the same compound, the “Predicted Hepatic Clearance (Pred. Cl.)” value in series [2] was 4.67 mL/min/kg.
Consider `N#Cc1ccc(COc2cccc(-c3cc(F)c(Cc4nc5ccc(C(=O)O)cc5n4C4CCCC4(F)F)cc3F)n2)c(F)c1` (stereo not shown) [Example 700], for which the EC50 in series [1] (setting [3]) stood at 3.48 nM. For the same compound, the “Predicted Hepatic Clearance (Pred. Cl.)” value in series [2] is 5.17 mL/min/kg.
The matching figures for `CO[C@H]1CC[C@@H]1n1c(Cc2cc(F)c(-c3cccc(OCc4ccc(C#N)cc4F)n3)cc2F)nc2ccc(C(=O)O)cc21` [Example 701]: 145 nM and 3.83 mL/min/kg.
The matching figures for `N#Cc1ccc(COc2cccc(-c3cc(F)c(Cc4nc5ccc(C(=O)O)cc5n4C4COCCOC4)cc3F)n2)c(F)c1` [Example 702]: 8.14 nM and 2.67 mL/min/kg.
For the compound `N#Cc1ccc(COc2cccc(-c3cc(F)c(Cc4nc5ccc(C(=O)O)cc5n4CC45COCC4C5(F)F)cc3F)n2)c(F)c1` (stereo not shown) [Example 703], the EC50 in series [1] (setting [3]) stood at 1.01 nM. Also, the “Predicted Hepatic Clearance (Pred. Cl.)” value in series [2] was 5.67 mL/min/kg.
The matching figures for `N#Cc1ccc(COc2cccc(-c3cc(F)c(Cc4nc5ccc(C(=O)O)cc5n4CC45COCC4C5)cc3F)n2)c(F)c1` (stereo not shown) [Example 704]: 0.98 nM and 1.83 mL/min/kg.
As to `N#Cc1ccc(COc2cccc(-c3cc(F)c(Cc4nc5ccc(C(=O)O)cc5n4[C@H]4CC[C@@H]4O)cc3F)n2)c(F)c1` [Example 705], in series [1] (setting [3]), the EC50 was 73.2 nM. Also, the “Predicted Hepatic Clearance (Pred. Cl.)” value in series [2] is 13.3 mL/min/kg.
Take `N#Cc1ccc(COc2cccc(-c3cc(F)c(Cc4nc5ccc(C(=O)O)cc5n4Cc4cncs4)cc3F)n2)c(F)c1` [Example 706]: the EC50 in series [1] (setting [3]) amounted to 1.31 nM. In addition, the “Predicted Hepatic Clearance (Pred. Cl.)” value in series [2] was 12.2 mL/min/kg.
In the case of `N#Cc1ccc(COc2cccc(-c3cc(F)c(Cc4nc5ccc(C(=O)O)cc5n4Cc4nccs4)cc3F)n2)c(F)c1` [Example 707], the EC50 in series [1] (setting [3]) was 4.81 nM. Besides, in series [2], the “Predicted Hepatic Clearance (Pred. Cl.)” value is 4 mL/min/kg.
The matching figures for `CO[C@@H]1CCC[C@@H]1n1c(Cc2cc(F)c(-c3cccc(OCc4ccc(C#N)cc4F)n3)cc2F)nc2ccc(C(=O)O)cc21` [Example 708]: 0.64 nM and 7.5 mL/min/kg.
Taken in the same sequence, the figures for `CO[C@H]1CCC[C@@H]1n1c(Cc2cc(F)c(-c3cccc(OCc4ccc(C#N)cc4F)n3)cc2F)nc2ccc(C(=O)O)cc21` [Example 709] were 4.77 nM and 8.83 mL/min/kg.
The matching figures for `N#Cc1ccc(COc2cccc(-c3cc(F)c(Cc4nc5ccc(C(=O)O)cc5n4[C@H]4CCC[C@@]45CCCO5)cc3F)n2)c(F)c1` [Example 710]: 1.45 nM and 11 mL/min/kg.
As for `CO[C@@H]1COC[C@@H]1n1c(Cc2cc(F)c(-c3cccc(OCc4ccc(C#N)cc4F)n3)cc2F)nc2ccc(C(=O)O)cc21` [Example 711], in series [1] (setting [3]), the EC50 came out at 0.08 nM. The “Predicted Hepatic Clearance (Pred. Cl.)” value in series [2] was 6.33 mL/min/kg.
`CO[C@H]1COC[C@@H]1n1c(Cc2cc(F)c(-c3cccc(OCc4ccc(C#N)cc4F)n3)cc2F)nc2ccc(C(=O)O)cc21` [Example 712]: the concentration for a half-maximal effect (EC50) in series [1] (setting [3]) was found to be 2.55 nM. Further, in series [2], the “Predicted Hepatic Clearance (Pred. Cl.)” value is 6.83 mL/min/kg.
The matching figures for `N#Cc1ccc(COc2cccc(-c3cc(F)c(Cc4nc5ccc(C(=O)O)cc5n4CC4(F)CCOCC4)cc3F)n2)c(F)c1` [Example 713]: 5.76 nM and 2.5 mL/min/kg.
Taken in the same sequence, the figures for `CC12CCC(Cn3c(Cc4cc(F)c(-c5cccc(OCc6ccc(C#N)cc6F)n5)cc4F)nc4ccc(C(=O)O)cc43)(C1)OC2` (stereo not shown) [Example 714] were 24.9 nM and 1.83 mL/min/kg.
Taken in the same sequence, the figures for `COC(Cn1c(Cc2cc(F)c(-c3cccc(OCc4ccc(C#N)cc4F)n3)cc2F)nc2ccc(C(=O)O)cc21)C(F)(F)F` (stereo not shown) [Example 715] were 4.01 nM and 2 mL/min/kg.
As for `COC[C@@H](c1ccccc1)n1c(Cc2cc(F)c(-c3cccc(OCc4ccc(C#N)cc4F)n3)cc2F)nc2ccc(C(=O)O)cc21` [Example 716], the EC50 in series [1] (setting [3]) was found to be 2740 nM. Besides, the “Predicted Hepatic Clearance (Pred. Cl.)” value in series [2] is 2.17 mL/min/kg.
`COC[C@H](c1ccccc1)n1c(Cc2cc(F)c(-c3cccc(OCc4ccc(C#N)cc4F)n3)cc2F)nc2ccc(C(=O)O)cc21` [Example 717]: the EC50 in series [1] (setting [3]) amounted to 41.5 nM. Moreover, the “Predicted Hepatic Clearance (Pred. Cl.)” value in series [2] is 7.5 mL/min/kg.
On to `N#CCC1(Cn2c(Cc3cc(F)c(-c4cccc(OCc5ccc(C(F)F)cc5F)n4)cc3F)nc3ccc(C(=O)O)cc32)CC1` [Example 718], for which the EC50 in series [1] (setting [3]) was determined as 0.05 nM. Moreover, the “Predicted Hepatic Clearance (Pred. Cl.)” value in series [2] was 1.83 mL/min/kg.
The matching figures for `O=C(O)c1ccc2nc(Cc3cc(F)c(-c4cccc(OCc5ccc(C(F)F)cc5F)n4)cc3F)n(CC3(CF)CC3)c2c1` [Example 719]: 0.37 nM and 1.83 mL/min/kg.
`N#Cc1ccc(COc2cccc(-c3cc(F)c(Cc4nc5ccc(C(=O)O)cc5n4[C@@H]4C[C@H]4C(F)F)cc3F)n2)c(F)c1` [Example 720]: the EC50 in series [1] (setting [3]) was found to be 27.8 nM. For the same compound, in series [2], the “Predicted Hepatic Clearance (Pred. Cl.)” value was 5.33 mL/min/kg.
Taken in the same sequence, the figures for `CC(C)(Cn1c(Cc2cc(F)c(-c3cccc(OCc4ccc(C#N)cc4F)n3)cc2F)nc2ccc(C(=O)O)cc21)OC(F)F` [Example 721] were 1.31 nM and 7.83 mL/min/kg.
In series [1] (EC50 (nM)), `C[C@H](O)Cn1c(Cc2cc(F)c(-c3cccc(OCc4ccc(C#N)cc4F)n3)cc2F)nc2ccc(C(=O)O)cc21` [Example 723] came in with an EC50 of 5.19 nM. Besides, in series [2], the “Predicted Hepatic Clearance (Pred. Cl.)” value is 3.5 mL/min/kg.
The matching figures for `C[C@@H](O)Cn1c(Cc2cc(F)c(-c3cccc(OCc4ccc(C#N)cc4F)n3)cc2F)nc2ccc(C(=O)O)cc21` [Example 724]: 15.1 nM and 6.67 mL/min/kg.
As to `CO[C@@H]1CCCC[C@@H]1n1c(Cc2cc(F)c(-c3cccc(OCc4ccc(C#N)cc4F)n3)cc2F)nc2ccc(C(=O)O)cc21` [Example 725], the EC50 in series [1] (setting [3]) came to 3.68 nM. Also, in series [2], the “Predicted Hepatic Clearance (Pred. Cl.)” value is 9.5 mL/min/kg.
Taken in the same sequence, the figures for `COC[C@@H](CF)n1c(Cc2cc(F)c(-c3cccc(OCc4ccc(C#N)cc4F)n3)cc2F)nc2ccc(C(=O)O)cc21` [Example 726] were 7.26 nM and 5.5 mL/min/kg.
Taken in the same sequence, the figures for `COC[C@H](CF)n1c(Cc2cc(F)c(-c3cccc(OCc4ccc(C#N)cc4F)n3)cc2F)nc2ccc(C(=O)O)cc21` [Example 727] were 46.3 nM and 5.5 mL/min/kg.
Regarding `N#Cc1ccc(COc2cccc(-c3cc(F)c(Cc4nc5ccc(C(=O)O)cc5n4C4CC5(COC5)C4)cc3F)n2)c(F)c1` [Example 728], in series [1] (setting [3]), the EC50 is 93.6 nM. Further, in series [2], the “Predicted Hepatic Clearance (Pred. Cl.)” value was 8.33 mL/min/kg.
Taken in the same sequence, the figures for `N#Cc1ccc(COc2cccc(-c3cc(F)c(Cc4nc5ccc(C(=O)O)cc5n4CC4(F)CC4)cc3F)n2)c(F)c1` [Example 729] were 1.03 nM and 1.83 mL/min/kg.
As to `N#Cc1ccc(COc2cccc(-c3cc(F)c(Cc4nc5ccc(C(=O)O)cc5n4CC4(COC(F)F)CC4)cc3F)n2)c(F)c1` [Example 730], in series [1] (setting [3]), the EC50 is 0.98 nM. The “Predicted Hepatic Clearance (Pred. Cl.)” value in series [2] was 1.83 mL/min/kg.
As to `COC[C@H]1C[C@H](n2c(Cc3cc(F)c(-c4cccc(OCc5ccc(C#N)cc5F)n4)cc3F)nc3ccc(C(=O)O)cc32)C1` [Example 731], the half-maximal effective concentration (EC50) in series [1] (setting [3]) came to 290 nM. Besides, the “Predicted Hepatic Clearance (Pred. Cl.)” value in series [2] was 10.3 mL/min/kg.
In the case of `COCC(COC)n1c(Cc2cc(F)c(-c3cccc(OCc4ccc(C#N)cc4F)n3)cc2F)nc2ccc(C(=O)O)cc21` [Example 732], the EC50 in series [1] (setting [3]) was found to be 169 nM. Also, the “Predicted Hepatic Clearance (Pred. Cl.)” value in series [2] is 8.17 mL/min/kg.
Consider `N#Cc1ccc(COc2cccc(-c3cc(F)c(Cc4nc5ccc(C(=O)O)cc5n4CC4(O)CC4)cc3F)n2)c(F)c1` [Example 733], for which the EC50 in series [1] (setting [3]) turned out to be 2.47 nM. Besides, the “Predicted Hepatic Clearance (Pred. Cl.)” value in series [2] was 3.83 mL/min/kg.
As to `COC[C@H]1C[C@@H](n2c(Cc3cc(F)c(-c4cccc(OCc5ccc(C#N)cc5F)n4)cc3F)nc3ccc(C(=O)O)cc32)C1` [Example 734], the EC50 in series [1] (setting [3]) worked out at 168 nM. Moreover, the “Predicted Hepatic Clearance (Pred. Cl.)” value in series [2] was 8 mL/min/kg.
For `CS(=O)(=O)N1CCC[C@@H]1Cn1c(Cc2cc(F)c(-c3cccc(OCc4ccc(C#N)cc4F)n3)cc2F)nc2ccc(C(=O)O)cc21` [Example 735], in series [1] (read-out: EC50), the EC50 was 1.7 nM. In addition, the “Predicted Hepatic Clearance (Pred. Cl.)” value in series [2] was 7.17 mL/min/kg.
For `N#Cc1ccc(COc2cccc(-c3cc(F)c(Cc4nc5ccc(C(=O)O)cc5n4CC45CC(C4)C(C(F)(F)F)O5)cc3F)n2)c(F)c1` (stereo not shown) [Example 737], in series [1] (setting [3]), the EC50 stood at 1.89 nM. Also, the “Predicted Hepatic Clearance (Pred. Cl.)” value in series [2] was 1.83 mL/min/kg.
